Measured values from patent publication US3956495A, “2,4-Diaminoquinazolines as antithrombotic agents” (Eli Lilly and Company, priority 1973, dated 1976).
Structures can show the parent of a compound that is named as a salt.

Legend:
[1] = tested on: collagen-induced aggregation (platelet); test: Collagen-induced platelet aggregation inhibition, in vitro test (Table I); format: cell-based; settings: for inhibition at 41.7 µg/mL: 41.7 μg/ml; for inhibition at 10.4 µg/mL: 10.4 μg/ml; for inhibition at 167 µg/mL: 167 μg/ml
Source text: (§1) Exp. Biol. Med., 135, 100 (1970), and references cited therein.

[2] = tested on: platelet aggregation to collagen challenge; test: Platelet aggregation inhibition to collagen challenge, in vivo-in vitro test after oral administration (Table II); parameters: species or system guinea pig; settings: stock suspension 1:4, blood one hour and three hours after dosing
Experimental: Briefly, the test procedure is as follows: blood samples are obtained from a guinea pig prior to the oral administration of the test compound. The test compound when is administered orally and blood samples withdrawn one hour and three hours after dosing. Each blood sample is treated as described in the in vitro test. The test requires one control group of six animals and six animals per compound per dose. For a more detailed description, see Herrmann et al., Proc. Soc. Exp. Biol. Med., 139, 548 (1972).

[3] = tested on: ADP-induced aggregation (platelet); test: ADP-induced platelet aggregation inhibition, in vitro test (Table I); format: cell-based; settings: for inhibition at 167 µg/mL: 167 μg/ml
Source text: as §1

[4] = Platelet, 83.4 μg/ml, collagen stock suspension 1:4
[5] = Platelet, collagen stock suspension 1:4
[6] = Platelet, collagen stock solution 1:32

**Q.** How did the inhibition at 83.4 µg/mL [1, 4] turn out when `CN1CCN(c2nc(N)c3ccccc3n2)CC1` [2-(4-methylpiperazinyl)-4-aminoquinazoline hydrochloride] was run?
**A.** ≥ 20%

**Q.** `c1ccc2c(N3CCCCC3)nc(N3CCCCC3)nc2c1` [2,4-bispiperidinoquinazoline] was tested. Which inhibition at 41.7 µg/mL [1, 5] did it give?
**A.** ≥ 20%

**Q.** What about the inhibition at 50 mg/kg ([2]; Cavia porcellus, Platelet, 50 mg/kg) of the same compound?
**A.** ≥ 20%

**Q.** For `NCCNc1nc(N2CCOCC2)c2ccccc2n1` [2-(2-aminoethylamino)-4-morpholinoquinazoline dihydrochloride], which inhibition at 83.4 µg/mL [1, 4] is on record?
**A.** ≥ 20%

**Q.** Which inhibition at 83.4 µg/mL [1, 4] does the source give for `c1ccc2c(NC34CC5CC(CC(C5)C3)C4)nc(N3CCOCC3)nc2c1` [2-morpholino-4-(1-adamantylamino)quinazoline hydrochloride] here?
**A.** ≥ 20%

**Q.** Which inhibition at 10.4 µg/mL ([1]; Platelet, collagen stock suspension undiluted) does the source give for `CCN(CC)CCNc1nc(N2CCCC2)nc2ccccc12` [2-pyrrolidinyl-4-(2-diethylaminoethylamino)quinazoline] here?
**A.** ≥ 20%

**Q.** And the inhibition at 20.8 µg/mL ([1]; Platelet, 20.8 μg/ml, collagen stock suspension 1:4)?
**A.** ≥ 20%

**Q.** What does the source list for 2,4-bispyrrolidinylquinazoline?
**A.** % Inhibition of Aggregation, Collagen ([1]; 2.6 μg/ml, collagen stock suspension undiluted): ≥ 20%; % Inhibition of Aggregation, Collagen ([1]; 83.4 μg/ml, collagen stock suspension 1:4): ≥ 20%; % Inhibition of Aggregation to Collagen Challenge ([2]; 12.5 mg/kg): ≥ 20%

**Q.** With `CN1CCN(c2nc(N3CCOCC3)c3ccccc3n2)CC1` [2-(4-methylpiperazinyl)-4-morpholinoquinazoline] as the compound, how does the inhibition at 2.6 µg/mL ([1]; Platelet, 2.6 μg/ml, collagen stock solution 1:32) read?
**A.** 30%

**Q.** What about the inhibition at 83 µg/mL ([3]; 83 μg/ml) of the same compound?
**A.** 44%

**Q.** `CN(C)c1nc(N(C)C)c2ccccc2n1` [2,4-bis(dimethylamino)quinazoline] was tested. Which inhibition at 41.7 µg/mL [1, 5] did it give?
**A.** ≥ 20%

**Q.** Which inhibition at 10.4 µg/mL [1, 5] does the source give for `c1ccc2c(N3CCOCC3)nc(N3CCOCC3)nc2c1` [2,4-bismorpholinoquinazoline] here?
**A.** 35%

**Q.** What about the inhibition at 5.2 µg/mL ([3]; 5.2 μg/ml) of the same compound?
**A.** 51%

**Q.** For `Clc1ccc2nc(N3CCOCC3)nc(N3CCOCC3)c2c1` [2,4-bismorpholino-6-chloroquinazoline], which inhibition at 167 µg/mL [1, 6] is on record?
**A.** 25%

**Q.** What about the inhibition at 167 µg/mL [3] of the same compound?
**A.** 3%

**Q.** How did the inhibition at 41.7 µg/mL [1, 5] turn out when `CCN(CC)CCNc1nc(N2CCOCC2)nc2ccccc12` [2-morpholino-4-(2-diethylaminoethylamino)quinazoline hydrochloride] was run?
**A.** ≥ 20%

**Q.** What about the inhibition at 100 mg/kg ([2]; Cavia porcellus, Platelet, 100 mg/kg) of the same compound?
**A.** ≥ 20%

**Q.** With `Clc1ccc2nc(N3CCCCC3)nc(N3CCCCC3)c2c1` [2,4-bispiperidino-6-chloroquinazoline] as the compound, how does the inhibition at 167 µg/mL [1, 6] read?
**A.** 91%

**Q.** And the inhibition at 167 µg/mL [3]?
**A.** 61%

**Q.** For `CN1CCN(c2nc(N3CCOCC3)nc3ccccc23)CC1` [2-morpholino-4-(4-methylpiperazinyl)quinazoline dihydrochloride, dihydrate], which inhibition at 41.7 µg/mL [1, 5] is on record?
**A.** ≥ 20%

**Q.** For `Cc1ccc2nc(N3CCCCC3)nc(N3CCCCC3)c2c1` [2,4-bispiperidino-6-methylquinazoline], which inhibition at 167 µg/mL [1, 6] is on record?
**A.** 21%

**Q.** What about the inhibition at 167 µg/mL [3] of the same compound?
**A.** 5%

**Q.** Which inhibition at 41.7 µg/mL [1, 5] does the source give for `Nc1nc(N2CCOCC2)nc2ccccc12` [2-morpholino-4-aminoquinazoline] here?
**A.** ≥ 20%

**Q.** For `CCN(CC)c1nc(N2CCOCC2)nc2ccccc12` [2-morpholino-4-diethylaminoquinazoline, 2-morpholino-4-diethylaminoquinazoline hydrochloride], which inhibition at 10.4 µg/mL [1, 5] is on record?
**A.** ≥ 20%

**Q.** Which results are given for `Cc1ccc2nc(N3CCOCC3)nc(N3CCOCC3)c2c1` [2,4-bismorpholino-6-methylquinazoline]?
**A.** inhibition at 167 µg/mL [1, 6]: 62%; inhibition at 167 µg/mL [3]: 29%
